Experimental findings from US4139629A, “Pseudomonic acid amide antibacterial compounds” (priority 1976, dated 1979) are described below.

≈ marks a conversion by molar mass, not a printed value. Like-named read-outs stand apart in the source and are kept apart here.

Data set [1] concerns Oxford Staph. The data set can be described thus: MIC by serial dilution in 10% horse blood agar (Table 2). Type of data set: cell-based. The following applies: 24 hours at 37° C. The procedure:
(§1) *Serial dilution in 10% horse blood agar. Incubated in a partial atmosphere of CO2 for 24 hours at 37° C. Inoculated with one drop (0.001ml) of an overnight cell suspension.

Data set [2] relates to N.gonorrhoeae. Briefly: Activity against N.gonorrhoeae, MIC by serial dilution in 10% horse blood agar. The format is cell-based. The following applies: Neisseria gonorrhoeae, 24 h. The procedure:
as §1

For data set [3], the system named is Staph. aureus Oxford. Briefly: Antibacterial activity against Gram-positive organisms (MIC). Type of data set: cell-based. The following applies: Staphylococcus aureus.
Data set [4] concerns B. Subtilis. Described as above. The format is cell-based. The following applies: Bacillus subtilis.
The test system of data set [5] is Strep. faecalis. The data set is described as above. Type of data set: cell-based. The following applies: Enterococcus faecalis.
For data set [6], the system named is Staph. aureus 1517. The data set is described as above. Type of data set: cell-based. The following applies: Staphylococcus aureus.
Data set [7] concerns Staph. aureus Russell. Described as above. The format is cell-based. As to conditions: Staphylococcus aureus.
Data set [8] deals with M. gallisepticum S6. The data set can be described thus: Antimycoplasmal MIC, metabolic-inhibition test in Microtitre plates. As to conditions: Mycoplasmoides gallisepticum, 168 h; M. gallisepticum S6, source chicken; 37° C. for 7 days. Type of data set: cell-based. The procedure:
(§2) The method used to test for antimycoplasmal activity was as follows:
(§3) The minimal inhibitory concentration (MIC) of the pseudomonic acid amides was determined in Microtitre plates, by a modification of the metabolic-inhibition test (Taylor-Robinson, 1967). The compounds were serially diluted in sterile de-ionised water to give a range of concentrations from 250-0.5 μg/ml. Mycoplasma broth containing 1% (w/v) of glucose and 0.005% (w/v) of phenol red, was added at a strength to compensate for its dilution by the aqueous drug solution. Approximately 10^4 colony forming units of mycoplasma were added to each concentration of drug. Drug-free infected, non-infected and pH control wells were included on each plate. Plates were sealed with cellophane tape and incubated at 37° C. for 7 days. The MIC was the lowest concentration of compound that prevented a colour change in the mycoplasma broth caused by the metabolism of glucose by the mycoplasmas.

The test system of data set [9] is M. pneumoniae 429 a. The description is as above. The following applies: Mycoplasmoides pneumoniae, 168 h, source man, 37° C. for 7 days. The format is cell-based. The procedure:
as §2, §3

Data set [10] has as its system M. fermentans MWKL4. Described as above. Type of data set: cell-based. The following applies: Mycoplasmopsis fermentans, 168 h; M. fermentans MWKL4, source man; 37° C. for 7 days. The procedure:
as §2, §3

For data set [11], the system named is M. synoviae ATCC 25204. Described as above. Type of data set: cell-based. The following applies: Mycoplasmopsis synoviae, ATCC25204, 168 h; M. synoviae ATCC 25204, source chicken; 37° C. for 7 days. The procedure: as §2, §3
The subject of data set [12] is M. dispar H 225. The description is as above. Type of data set: cell-based. As to conditions: 168 h; M. dispar H 225, source cattle; 37° C. for 7 days. The procedure:
as §2, §3

Data set [13] has as its system M. pulmonis `JB`. The description is as above. Type of data set: cell-based. The following applies: Mycoplasmopsis pulmonis, 168 h, source mouse, 37° C. for 7 days. The procedure:
as §2, §3

The test system of data set [14] is M. agalactiae ATCC 25025. The description is as above. As to conditions: Mycoplasmopsis agalactiae, ATCC25025, 168 h; M. agalactiae ATCC 25025, source cattle; 37° C. for 7 days. Type of data set: cell-based. The procedure: as §2, §3
Data set [15] deals with M. suipneumoniae (Laber). Described as above. Type of data set: cell-based. The following applies: Mesomycoplasma hyopneumoniae, 168 h, source pig, 37° C. for 7 days. The procedure:
as §2, §3

Data set [16] has as its system mycoplasmas from human and veterinary sources. Briefly: Antimycoplasmal activity in vitro (summary). The following applies: in words. The format is cell-based, mycoplasma. The procedure: as §2, §3
Data set [17] deals with β-Haemolytic Strep. CN10. The data set can be described thus: Antibacterial activity against Gram-positive organisms (MIC). The format is cell-based.
Data set [18] is described as follows: Serum binding by ultrafiltration, filtrate assayed by hole-in-plate method. The format is in vitro ADME. The procedure:
The degree of binding to human serum of the compounds of Examples 1 and 2 compared with that of pseudomonic acid was determined by the following procedure:
Test samples were mixed with human serum and placed in visking tubing. Serum binding was determined by ultrafiltration, the filtrate obtained being assayed by a hole-in-plate method using Bacillus subtilis ATCC 6633 against standards prepared in 0.05M pH7.0 phosphate buffer.

Setting [19] is: strain 69, 24 hours at 37° C., read-out: M.I.C.
[20] abbreviates: strain 70, 24 hours at 37° C., read-out: M.I.C.
Setting [21] is: strain 77, 24 hours at 37° C., read-out: M.I.C.
Setting [22] is: strain 82, 24 hours at 37° C., read-out: M.I.C.
The mark [23] stands for this setting: strain 87, 24 hours at 37° C., read-out: M.I.C.
[24] abbreviates: strain 2176, 24 hours at 37° C., read-out: M.I.C.
Setting [25] is: strain AR 229, 24 hours at 37° C., read-out: M.I.C.
[26] abbreviates: strain H2057, 24 hours at 37° C., read-out: M.I.C.
The mark [27] stands for this setting: strain VD 79, 24 hours at 37° C., read-out: M.I.C.
Where [28] appears, read: strain VDRL 67, 24 hours at 37° C., read-out: M.I.C.
Where [29] appears, read: strain WHO VII, 24 hours at 37° C., read-out: M.I.C.

`CC1(C)S[C@@H]2[C@H](NC(=O)Cc3ccccc3)C(=O)N2[C@H]1C(=O)O` [Benzyl Penicillin, benzylpenicillin, reference compound]: the MIC in data set [1] was 0.02 µg/mL (≈ 0.0598 µM); in [2] (strain 69, 24 hours at 37° C.), 0.1 µg/mL (≈ 0.299 µM); in data set [2] (strain 70, 24 hours at 37° C.), 0.1 µg/mL (≈ 0.299 µM); in [2] (strain 72, 24 hours at 37° C.), 0.2 µg/mL (≈ 0.598 µM); in data set [2] (strain 77, 24 hours at 37° C.) it was 0.1 µg/mL (≈ 0.299 µM); in data set [2] (strain 82, 24 hours at 37° C.) it was 0.5 µg/mL (≈ 1.5 µM). In addition, the MIC was determined as 0.01 µg/mL (≈ 0.0299 µM) in data set [2] (strain 87, 24 hours at 37° C.); 0.2 µg/mL (≈ 0.598 µM) in data set [2] (strain 2176, 24 hours at 37° C.); 1 µg/mL (≈ 2.99 µM) in [2] (strain AR 229, 24 hours at 37° C.); 0.005 µg/mL (≈ 0.015 µM) in data set [2] (strain H2057, 24 hours at 37° C.); 0.2 µg/mL (≈ 0.598 µM) in data set [2] (strain VD 79, 24 hours at 37° C.); 0.05 µg/mL (≈ 0.15 µM) in data set [2] (strain VDRL 67, 24 hours at 37° C.). This compound came in with an MIC in data set [2] (strain WHO VII, 24 hours at 37° C.) of 0.005 µg/mL (≈ 0.015 µM).
For the compound `CNC(=O)CCCCCCCCOC(=O)/C=C(\C)CC1OCC(CC2OC2C(C)C(C)O)C(O)C1O` (stereo not drawn) [Example 1, Pseudomonic acid N-methylamide], the MIC stood at 0.5 µg/mL (≈ 0.973 µM) in data set [3]; 0.05 µg/mL (≈ 0.0973 µM) in [1]; 0.002 µg/mL (≈ 0.00389 µM) in data set [2] (setting [19]); 0.005 µg/mL (≈ 0.00973 µM) in data set [2] (setting [20]); 0.005 µg/mL (≈ 0.00973 µM) in [2] (setting [21]); 0.05 µg/mL (≈ 0.0973 µM) in data set [2] (setting [22]). In addition, the MIC in data set [2] (setting [23]) amounted to 0.01 µg/mL (≈ 0.0195 µM); in data set [2] (setting [24]), 0.02 µg/mL (≈ 0.0389 µM); in [2] (setting [25]), 0.05 µg/mL (≈ 0.0973 µM); in data set [2] (setting [26]), 0.005 µg/mL (≈ 0.00973 µM); in data set [2] (setting [27]) it was 0.02 µg/mL (≈ 0.0389 µM); in data set [2] (setting [28]), 0.002 µg/mL (≈ 0.00389 µM). Further, the MIC in [2] (setting [29]) came to 0.005 µg/mL (≈ 0.00973 µM); in [4] it was 0.25 µg/mL (≈ 0.487 µM); in [5], 125 µg/mL (≈ 243 µM); in [6], 1.25 µg/mL (≈ 2.43 µM); in data set [7], 1.25 µg/mL (≈ 2.43 µM).
As for `C/C(=C\C(=O)OCCCCCCCCC(=O)N(C)C)CC1OCC(CC2OC2C(C)C(C)O)C(O)C1O` (stereo not drawn) [Example 3, Pseudomonic acid N,N-dimethylamide], the MIC was less than 0.5 µg/mL in data set [8]; 250 µg/mL (≈ 474 µM) in [9]; less than 0.5 µg/mL in data set [10]; less than 0.5 µg/mL in data set [11]; less than 0.5 µg/mL in data set [12]; less than 0.5 µg/mL in [13]. Besides, the figures for the MIC in data set [14] and in [15] were less than 0.5 µg/mL and 3.9 µg/mL (≈ 7.39 µM), respectively. The “antimycoplasmal activity in vitro” value in [16] is given as “good antimycoplasmal activity”.
`C/C(=C\C(=O)OCCCCCCCCC(N)=O)CC1OCC(CC2OC2C(C)C(C)O)C(O)C1O` (stereo not drawn) [Example 2, Pseudomonic Acid Amide]: the MIC in [3] is 0.5 µg/mL (≈ 1 µM); in data set [17], 0.1 µg/mL (≈ 0.2 µM); in data set [1], 0.05 µg/mL (≈ 0.1 µM); in data set [8], less than 0.5 µg/mL; in [9], 250 µg/mL (≈ 500 µM); in [10] it was less than 0.5 µg/mL. Further, the MIC was less than 0.5 µg/mL in data set [11]; less than 0.5 µg/mL in data set [12]; less than 0.5 µg/mL in data set [13]; less than 0.5 µg/mL in [14]; less than 0.5 µg/mL in data set [15]; 0.002 µg/mL (≈ 0.004 µM) in data set [2] (setting [19]). Besides, the MIC in [2] (setting [20]) is 0.005 µg/mL (≈ 0.01 µM); in [2] (strain 72, 24 hours at 37° C., read-out: M.I.C.), 0.01 µg/mL (≈ 0.02 µM); in data set [2] (setting [21]), 0.02 µg/mL (≈ 0.04 µM); in data set [2] (setting [22]), 0.05 µg/mL (≈ 0.1 µM); in data set [2] (setting [23]) it was 0.005 µg/mL (≈ 0.01 µM); in data set [2] (setting [24]) it was 0.02 µg/mL (≈ 0.04 µM). Besides, the MIC in data set [2] (setting [25]) was 0.05 µg/mL (≈ 0.1 µM); in data set [2] (setting [26]), 0.005 µg/mL (≈ 0.01 µM); in [2] (setting [27]), 0.02 µg/mL (≈ 0.04 µM); in [2] (setting [28]), 0.002 µg/mL (≈ 0.004 µM); in data set [2] (setting [29]), 0.002 µg/mL (≈ 0.004 µM); in data set [4], 0.25 µg/mL (≈ 0.5 µM). Moreover, the values for the MIC in [5], in data set [6] and in [7] were 100 µg/mL (≈ 200 µM), 2.5 µg/mL (≈ 5 µM) and 1 µg/mL (≈ 2 µM), respectively. Besides, the “antimycoplasmal activity in vitro” value in data set [16] is “good antimycoplasmal activity”.
On to `C/C(=C\C(=O)OCCCCCCCCC(=O)O)C[C@@H]1OC[C@H](C[C@@H]2O[C@H]2[C@@H](C)[C@H](C)O)[C@@H](O)[C@H]1O` [Pseudomonic acid], for which the “% unbound in human serum” value in [18] turned out to be 6.8%. In data set [18] (human, serum), this compound came in with a fraction unbound of 0.066.
